Measured values taken from patent publication US8232288B2, “Substituted benzimidazoles, benzothiazoles and benzoxazoles” (Gruenenthal GmbH, priority 2009, dated 2012).

What was measured:
[1] = target: T1, human B1R receptor (hB1R) (Homo sapiens, UniProt P46663); assay: Functional investigation on the bradykinin receptor 1 (B1R), FLIPR Ca2+ assay, hB1R cells; format: cell-based
T1 construct: expressed in transfected cells; host or cells: CHO K1 cells
T1 sequence (P46663 1-353): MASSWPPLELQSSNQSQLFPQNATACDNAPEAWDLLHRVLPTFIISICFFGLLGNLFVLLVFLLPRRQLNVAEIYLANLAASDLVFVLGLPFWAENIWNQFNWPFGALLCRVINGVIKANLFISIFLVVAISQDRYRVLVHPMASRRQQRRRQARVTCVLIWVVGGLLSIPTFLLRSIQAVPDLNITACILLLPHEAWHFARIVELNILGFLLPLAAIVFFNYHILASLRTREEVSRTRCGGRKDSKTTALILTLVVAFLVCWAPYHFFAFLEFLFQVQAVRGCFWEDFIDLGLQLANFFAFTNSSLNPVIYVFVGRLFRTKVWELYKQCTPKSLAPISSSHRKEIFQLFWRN
Summary of the method: (§1)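 Stably transfected CHO K1 cells expressing human or rat B1R were loaded with Fluo-4, and Ca2+ fluorescence was read on a FLIPR. Compound (10 μM) was added first to measure activation. After 10–20 min, agonist at EC80 was added (Lys-Des-Arg9-bradykinin for hB1R, Des-Arg9-bradykinin for rB1R) to give % inhibition. IC50 values came from concentration series.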

[2] = target: T2, B1R receptor of the rat (rB1R) (Rattus norvegicus, UniProt P97583); assay: Functional investigation on the bradykinin receptor 1 (B1R), FLIPR Ca2+ assay, rB1R cells; format: cell-based
T2 construct: expressed in transfected cells; host or cells: CHO K1 cells
T2 sequence (P97583 1-337): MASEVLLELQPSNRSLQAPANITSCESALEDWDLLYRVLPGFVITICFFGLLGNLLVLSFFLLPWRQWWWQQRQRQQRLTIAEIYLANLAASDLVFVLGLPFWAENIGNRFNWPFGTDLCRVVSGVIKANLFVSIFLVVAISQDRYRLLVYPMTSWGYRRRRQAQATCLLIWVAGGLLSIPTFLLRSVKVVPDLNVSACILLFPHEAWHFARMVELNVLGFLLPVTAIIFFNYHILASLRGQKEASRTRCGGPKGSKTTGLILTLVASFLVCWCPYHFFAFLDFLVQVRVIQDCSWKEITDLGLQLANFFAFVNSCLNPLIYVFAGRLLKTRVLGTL
Summary of the method: as §1

## COc1cc(C)c(S(=O)(=O)N(C)C(C)c2nc3cccc(C(=O)N4CCC5(CCN(C(=O)c6ccc(F)cc6Cl)CC5)CC4)c3[nH]2)c(C)c1 (stereo not shown) [I_CC-52, N-[1-[7-[9-(2-Chloro-4-fluoro-benzoyl)-3,9-diazaspiro[5.5]undecane-3-carbonyl]-1H-benzoimidazol-2-yl]-ethyl]-4-methoxy-N,2,6-trimethyl-benzenesulfonic acid amide]
[1]
  inhibition at 10 µM: 77%
[2]
  inhibition at 10 µM: 93%

## CN(Cc1nc2cccc(C(=O)N3CCC4(CC3)C(=O)NCC4c3ccncc3)c2[nH]1)C(=O)c1ccccc1Cl (stereo not shown) [I_CC-02, 2-chloro-N-methyl-N-[[7-(4-oxo-1-pyridin-4-yl-3,8-diazaspiro[4.5]decane-8-carbonyl)-1H-benzoimidazol-2-yl]-methyl]-benzamide]
[1]
  inhibition at 10 µM: 10%
[2]
  inhibition at 10 µM: 46%

## COc1cc(C)c(S(=O)(=O)N(C)C(C)c2nc3cccc(C(=O)N4CCC5(CCN(Cc6ccncc6)CC5)CC4)c3[nH]2)c(C)c1 (stereo not shown) [I_CC-27, 4-Methoxy-N,2,6-trimethyl-N-[1-[7-[9-(pyridin-4-yl-methyl)-3,9-diazaspiro[5.5]undecane-3-carbonyl]-1H-benzoimidazol-2-yl]-ethyl]-benzenesulfonic acid amide]
[1]
  inhibition at 10 µM: 90%
[2]
  inhibition at 10 µM: 92%

## O=C1c2c(Cl)cccc2CN1Cc1nc2cccc(C(=O)N3CCC4(CC3)CCN(c3ccncc3)CC4)c2[nH]1 [I_CC-12, 7-chloro-2-[[7-(3-pyridin-4-yl-3,9-diazaspiro[5.5]undecane-9-carbonyl)-1H-benzoimidazol-2-yl]-methyl]-2,3-dihydro-isoindol-1-one]
[1]
  inhibition at 10 µM: 100%
[2]
  inhibition at 10 µM: 101%

## COc1cc(C)c(S(=O)(=O)N(C)C(C)c2nc3cccc(C(=O)N4CCC5(CC4)CCN(S(=O)(=O)c4ccc(F)cc4F)CC5)c3[nH]2)c(C)c1 (stereo not shown) [I_CC-57, N-[1-[7-[9-[(2,4-Difluoro-phenyl)sulfonyl]-3,9-diazaspiro[5.5]undecane-3-carbonyl]-1H-benzoimidazol-2-yl]-ethyl]-4-methoxy-N,2,6-trimethyl-benzenesulfonic acid amide]
[1]
  inhibition at 10 µM: 22%
[2]
  inhibition at 10 µM: 103%

## COc1cc(C)c(S(=O)(=O)N(C)C(C)c2nc3cccc(C(=O)N4CCC5(CCN(Cc6ccc(F)cc6F)CC5)CC4)c3[nH]2)c(C)c1 (stereo not shown) [I_CC-32, N-[1-[7-[9-[(2,4-Difluoro-phenyl)-methyl]-3,9-diazaspiro[5.5]undecane-3-carbonyl]-1H-benzoimidazol-2-yl]-ethyl]-4-methoxy-N,2,6-trimethyl-benzenesulfonic acid amide]
[1]
  inhibition at 10 µM: 71%
[2]
  inhibition at 10 µM: 99%

## COc1cc(C)c(S(=O)(=O)N(C)C(C)c2nc3cccc(C(=O)N4CCC5(CCN(Cc6ccc(F)cc6Cl)CC5)CC4)c3[nH]2)c(C)c1 (stereo not shown) [I_CC-39, N-[1-[7-[9-[(2-Chloro-4-fluoro-phenyl)-methyl]-3,9-diazaspiro[5.5]undecane-3-carbonyl]-1H-benzoimidazol-2-yl]-ethyl]-4-methoxy-N,2,6-trimethyl-benzenesulfonic acid amide]
[1]
  inhibition at 10 µM: 49%
[2]
  inhibition at 10 µM: 95%

## COc1cc(C)c(S(=O)(=O)N(C)Cc2nc3cccc(C(=O)N4CCC5(CCN(c6ccncc6)C5)C4)c3[nH]2)c(C)c1 (stereo not shown) [I_10, 4-methoxy-N,2,6-trimethyl-N-[[7-(8-pyridin-4-yl-3,8-diazaspiro[4.4]nonane-3-carbonyl)-1H-benzoimidazol-2-yl]-methyl]-benzenesulfonic acid amide]
[1]
  inhibition at 10 µM: 100%
[2]
  inhibition at 10 µM: 104%

## COc1cc(C)c(S(=O)(=O)N(C)c2nc3c(C(=O)N4CCC5(CC4)CCN(c4ccncc4)CC5)cccc3s2)c(C)c1 [I_CC-19, 4-methoxy-N,2,6-trimethyl-N-[4-(3-pyridin-4-yl-3,9-diazaspiro[5.5]undecane-9-carbonyl)-benzothiazol-2-yl]-benzenesulfonic acid amide]
[1]
  inhibition at 10 µM: 54%
[2]
  inhibition at 10 µM: 80%

## COc1cc(C)c(S(=O)(=O)N(C)Cc2nc3ccc(C(=O)N4CCC5(CC4)CCN(c4ccncc4)CC5)cc3[nH]2)c(C)c1 [I_22, 4-methoxy-N,2,6-trimethyl-N-[[6-(9-pyridin-4-yl-3,9-diazaspiro[5.5]undecane-3-carbonyl)-1H-benzoimidazol-2-yl]-methyl]-benzenesulfonic acid amide]
[1]
  inhibition at 10 µM: 100%
[2]
  inhibition at 10 µM: 103%

## COc1cc(C)c(S(=O)(=O)N(C)C(C)c2nc3cccc(C(=O)N4CCC5(CC4)CCN(C(=O)C4CC4)CC5)c3[nH]2)c(C)c1 (stereo not shown) [I_CC-50, N-[1-[7-[9-(Cyclopropanecarbonyl)-3,9-diazaspiro[5.5]undecane-3-carbonyl]-1H-benzoimidazol-2-yl]-ethyl]-4-methoxy-N,2,6-trimethyl-benzenesulfonic acid amide]
[1]
  inhibition at 10 µM: 62%
[2]
  inhibition at 10 µM: 88%

## COc1cc(C)c(S(=O)(=O)N2CCCCC2c2nc3cccc(C(=O)N4CCC5(CC4)CCN(c4ccncc4)CC5)c3[nH]2)c(C)c1 (stereo not shown) [I_18, [2-[1-[(4-methoxy-2,6-dimethyl-phenyl)sulfonyl]-piperidin-2-yl]-3H-benzoimidazol-4-yl]-(9-pyridin-4-yl-3,9-diazaspiro[5.5]undecan-3-yl)-methanone]
[1]
  inhibition at 10 µM: 97%
[2]
  inhibition at 10 µM: 49%

## COc1cc(C)c(S(=O)(=O)N(C)Cc2nc3cccc(C(=O)N4CCC5(CCN(c6ccncc6)CC5)C4)c3[nH]2)c(C)c1 [I_09, 4-methoxy-N,2,6-trimethyl-N-[[7-(8-pyridin-4-yl-3,8-diazaspiro[4.5]decane-3-carbonyl)-1H-benzoimidazol-2-yl]-methyl]-benzenesulfonic acid amide]
[1]
  inhibition at 10 µM: 99%
[2]
  inhibition at 10 µM: 104%

## Cc1cc(S(=O)(=O)N(C)Cc2nc3cccc(C(=O)N4CCC5(CC4)CCN(c4ccncc4)C5)c3[nH]2)c(C)cc1Cl [I_CC-10, 4-chloro-N,2,5-trimethyl-N-[[7-(3-pyridin-4-yl-3,8-diazaspiro[4.5]decane-8-carbonyl)-1H-benzoimidazol-2-yl]-methyl]-benzenesulfonic acid amide]
[1]
  inhibition at 10 µM: 94%
[2]
  inhibition at 10 µM: 88%

## COc1cc(C)c(S(=O)(=O)N(C)c2nc3cccc(C(=O)N4CCC5(CC4)C(=O)NCC5c4ccncc4)c3n2C)c(C)c1 (stereo not shown) [I_CC-16, 4-methoxy-N,2,6-trimethyl-N-[1-methyl-7-(4-oxo-1-pyridin-4-yl-3,8-diazaspiro[4.5]decane-8-carbonyl)-1H-benzoimidazol-2-yl]-benzenesulfonic acid amide]
[1]
  inhibition at 10 µM: 72%
[2]
  inhibition at 10 µM: 82%

## COc1cc(C)c(S(=O)(=O)N(C)C(C)c2nc3cccc(C(=O)N4CCC5(CCN(Cc6c(F)cccc6OC)CC5)CC4)c3[nH]2)c(C)c1 (stereo not shown) [I_CC-34, N-[1-[7-[9-[(2-Fluoro-6-methoxy-phenyl)-methyl]-3,9-diazaspiro[5.5]undecane-3-carbonyl]-1H-benzoimidazol-2-yl]-ethyl]-4-methoxy-N,2,6-trimethyl-benzenesulfonic acid amide]
[1]
  inhibition at 10 µM: 91%
[2]
  inhibition at 10 µM: 86%

## COc1cc(C)c(S(=O)(=O)N(C)Cc2nc3c(C(=O)N4CCC5(CC4)CCN(c4ccncc4)CC5)cccc3s2)c(C)c1 [I_CC-22, 4-methoxy-N,2,6-trimethyl-N-[[4-(3-pyridin-4-yl-3,9-diazaspiro[5.5]undecane-9-carbonyl)-benzothiazol-2-yl]-methyl]-benzenesulfonic acid amide]
[1]
  inhibition at 10 µM: 95%
[2]
  inhibition at 10 µM: 93%

## COc1cc(C)c(S(=O)(=O)N(C)Cc2nc3cccc(C(=O)N4CCC5(CC4)CCN(c4ccncc4)C5)c3[nH]2)c(C)c1 [I_CC-06, 4-methoxy-N,2,6-trimethyl-N-[[7-(3-pyridin-4-yl-3,8-diazaspiro[4.5]decane-8-carbonyl)-1H-benzoimidazol-2-yl]-methyl]-benzenesulfonic acid amide]
[1]
  inhibition at 10 µM: 100%
[2]
  inhibition at 10 µM: 102%

## Cc1cc(S(=O)(=O)N(C)Cc2nc3cccc(C(=O)N4CCC5(CC4)CCN(c4ccncc4)CC5)c3[nH]2)c(C)cc1Cl [I_CC-01, 4-chloro-N,2,5-trimethyl-N-[[7-(3-pyridin-4-yl-3,9-diazaspiro[5.5]undecane-9-carbonyl)-1H-benzoimidazol-2-yl]-methyl]-benzenesulfonic acid amide]
[1]
  inhibition at 10 µM: 96%
[2]
  inhibition at 10 µM: 92%

## COc1cc(C)c(S(=O)(=O)N(C)C(C)c2nc3cccc(C(=O)N4CCC5(CCN(Cc6c(C)noc6C)CC5)CC4)c3[nH]2)c(C)c1 (stereo not shown) [I_CC-42, N-[1-[7-[9-[(3,5-Dimethyl-isoxazol-4-yl)-methyl]-3,9-diazaspiro[5.5]undecane-3-carbonyl]-1H-benzoimidazol-2-yl]-ethyl]-4-methoxy-N,2,6-trimethyl-benzenesulfonic acid amide]
[1]
  inhibition at 10 µM: 76%
[2]
  inhibition at 10 µM: 90%
